Source: BindingDB's records for doi:10.7270/Q2TX3CTT (Broad Institute, 2010)
pEC50: −log10 of the molar value.

Target: Glycogen synthase kinase-3 beta (Homo sapiens, UniProt P49841)
Test: GSK3beta kinase inhibitor potency, dose response, biochemical, luminescence, cell-free homogeneous, retest (AID 434954)

Glycogen synthase kinase-3 beta, sequence (P49841 whole entry): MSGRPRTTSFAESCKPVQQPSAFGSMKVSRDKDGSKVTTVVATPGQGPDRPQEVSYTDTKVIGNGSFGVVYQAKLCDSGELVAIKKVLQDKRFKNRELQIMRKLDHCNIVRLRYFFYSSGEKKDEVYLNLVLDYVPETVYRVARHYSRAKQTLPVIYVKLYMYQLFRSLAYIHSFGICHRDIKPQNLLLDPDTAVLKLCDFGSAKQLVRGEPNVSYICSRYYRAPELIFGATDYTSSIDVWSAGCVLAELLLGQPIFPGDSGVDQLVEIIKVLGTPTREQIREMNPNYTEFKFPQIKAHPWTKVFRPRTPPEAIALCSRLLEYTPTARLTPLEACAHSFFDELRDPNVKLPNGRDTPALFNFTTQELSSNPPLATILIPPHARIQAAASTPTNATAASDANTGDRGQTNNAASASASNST

In the case of `CN1CCc2[nH]c3ccc(C(=O)NN)cc3c2C1` [SMR000131639], the pEC50 was < 3.52.
For `COc1ccc(OC)c(C(=O)c2coc3ccc(OCC(=O)O)cc23)c1` [SMR000135205], the pEC50 was < 3.52.
With `Cc1cc(-c2n[nH]c3c2C(c2cccc(O)c2)C(C#N)C(=N)O3)c(C)s1` (configuration not stated) [SMR000136653] the pEC50 was 4.59.
Compound `Cc1ccc(Cc2cnc(NC(=O)C3CCCO3)s2)cc1` (configuration not stated) [SMR000141246] has a pEC50 of 4.76.
In the case of `Cc1cc(OC(C)C)c2c(-c3ccccc3)cc(=O)oc2c1` [SMR000141385], the pEC50 was < 3.52.
In the case of `Oc1ccc(CNCC2COc3ccccc3O2)cc1` (configuration not stated) [SMR000145120], the pEC50 was < 3.52.
In the case of `Cc1ccc(S(=O)(=O)N2CN(Cc3ccco3)c3nc4ccccc4nc32)cc1` [SMR000145587], the pEC50 was < 3.52.
With `N#Cc1c(N)nc2c(c1N)=C(N)SC1=NC(=O)CC(c3ccccc3)C=21` (configuration not stated) [SMR000147833] the pEC50 was < 3.52.
With `Cc1ccc(CNc2nc(N)c([N+](=O)[O-])c(Nc3cccc(F)c3)n2)cc1` [SMR000148340] the pEC50 was < 3.52.
For `Cc1ccc2cc3c(NC(=O)C4CCCO4)nn(CC(C)C)c3nc2c1` (configuration not stated) [SMR000148634], the pEC50 was < 3.52.
In the case of `CCCn1nc(NC(=O)C2CCCO2)c2cc3cc(C)ccc3nc21` (configuration not stated) [SMR000148635], the pEC50 was < 3.52.
In the case of `Cc1ccc2nc3c(cc2c1)c(NC(=O)C1CCCO1)nn3CC(C)C` (configuration not stated) [SMR000148636], the pEC50 was < 3.52.
With `CSc1nc(NCC(C)C)c2c3c(sc2n1)CN(C)CC3` [SMR000148856] the pEC50 was < 3.52.
`CSCCC(C(=O)NCc1cccs1)N1C(=O)c2ccccc2C1=O` (configuration not stated) [SMR000150898] was tested, and the pEC50 was < 3.52.
In the case of `Cc1nn(-c2ccccn2)c2c1C(c1ccncc1)C1C(=O)CC(C)(C)CC1=N2` (configuration not stated) [SMR000152057], the pEC50 was < 3.52.
For `CC(Cl)C(=O)Nc1ncc(C(F)(F)F)cc1Cl` (configuration not stated) [SMR000152526], the pEC50 was < 3.52.
With `CCc1nnc(NC(=O)c2cc(-c3ccccc3)nn2-c2ccccc2)s1` [SMR000152662] the pEC50 was < 3.52.
For `CCNC(=O)NC(=O)CSc1nc2ccccc2n1CCOC` [SMR000154706], the pEC50 was < 3.52.
`Cc1c(CCOC(=O)CC23CC4CC(CC(C4)C2)C3)sc[n+]1CC(=O)c1ccc(Br)cc1` [SMR000155561] was tested, and the pEC50 was < 3.52.
Work on `COc1cc2c(cc1O)C[C@H]1NCCc3cc4c(c-2c31)OCO4` [SMR000156298] yielded a pEC50 of 4.79.
`COc1ccc(C(=O)ON=C(C)c2ccccc2)cc1` [SMR000159704] gave a pEC50 of 4.68.
For `COc1ccc(-c2ccc3c(N)c(C(=O)c4cccc(OC)c4)sc3n2)cc1` [SMR000160395], the pEC50 was < 3.52.
For `O=c1c2c3c(sc2nc2n1N=C(c1cccs1)CS2)CCCC3` [SMR000161302], the pEC50 was < 3.52.
`Cc1cccc(NC(=O)CSc2nc(O)c(C#N)c(-c3ccccc3)n2)c1C` [SMR000161905] was tested, and the pEC50 was < 3.52.
For `N#Cc1c(-c2ccccc2)nc(-c2ccccc2)[nH]c1=O` [SMR000168447], the pEC50 was < 3.52.
In the case of `COc1ccc(-c2nc(-c3ccccc3)[nH]c(=O)c2C#N)cc1` [SMR000168458], the pEC50 was < 3.52.
In the case of `CCOC(=O)C1=C(C)NC(=O)C1=CNc1ccccc1` [SMR000168580], the pEC50 was 4.29.
In the case of `O=NCc1ccc(SCc2ccccc2)c([N+](=O)[O-])c1` [SMR000169144], the pEC50 was < 3.52.
`CSc1nc2ncc3c(n2n1)CC1c2ccccc2CCN1C3=O` (configuration not stated) [SMR000169664] gave a pEC50 of 4.33.
In the case of `CCn1c(/C=C/N(C)c2ccccc2)[n+](CC)c2cc(Cl)ccc21` [SMR000173749], the pEC50 was < 3.52.
`O=C1NC(=NNc2ccccc2)SC1=Cc1ccccc1` [SMR000174572] was tested, and the pEC50 was < 3.52.
For `Nc1nnnn1/N=C/c1ccc(N2CCCCC2)c([N+](=O)[O-])c1` [SMR000174985], the pEC50 was < 3.52.
In the case of `CCn1c(S)nnc1-c1ccc([N+](=O)[O-])cc1` [SMR000176027], the pEC50 was < 3.52.
In the case of `CON=C(CNC(=O)c1ccc(Cl)cc1Cl)c1ccc(Cl)cc1` [SMR000179199], the pEC50 was < 3.52.
For `O=C(/C=C/c1ccc2ccccc2c1)c1ccoc1` [SMR000179251], the pEC50 was < 3.52.
`O=C1Nc2ccccc2C1=Cc1cnc[nH]1` [SMR000180717] gave a pEC50 of 5.52.
For `CC[n+]1c(/C=C/N(C)c2ccccc2)oc2ccccc21` [SMR000184373], the pEC50 was < 3.52.
`CC[n+]1c(/C=C/N(C)c2ccccc2)oc2ccc(Cl)cc21` [SMR000184374] was tested, and the pEC50 was < 3.52.
With `O=C(COc1ccccc1[N+](=O)[O-])NN=Cc1cccs1` [SMR000185881] the pEC50 was < 3.52.
With `Cc1ccc(-c2nn(-c3ccccc3)cc2C=NNS(=O)(=O)c2ccccc2)cc1` [SMR000186234] the pEC50 was < 3.52.
With `CC1(C)CC(=O)C=C(NCc2ccccc2)C1` [SMR000186728] the pEC50 was < 3.52.
In the case of `O=C(Nc1cccc(Cl)c1)c1ccc(NCCCN2CCOCC2)c([N+](=O)[O-])c1` [SMR000194818], the pEC50 was < 3.52.
Work on `CCOC(=O)c1cnc2ccc(OC)cc2c1Nc1ccc2c(c1)OCCO2` [SMR000196288] yielded a pEC50 of 4.78.
In the case of `CCOC(=O)c1cnc2ccc(F)cc2c1Nc1ccc2c(c1)OCCO2` [SMR000198647], the pEC50 was < 3.52.
`Oc1ccc(N2CCN(C(=S)NCCc3ccccc3)CC2)cc1` [SMR000199335] was tested, and the pEC50 was < 3.52.
With `O=C(Nc1ccc(-c2nc3ccccc3o2)cc1)c1ccc(N2CCOCC2)c([N+](=O)[O-])c1` [SMR000201361] the pEC50 was < 3.52.
For `O=C(NN=Cc1ccco1)Nc1cccc(Cl)c1` [SMR000203570], the pEC50 was 4.42.
`COc1cc(C=NNC(=O)COc2ccccc2[N+](=O)[O-])ccc1OC(=O)c1ccco1` [SMR000204365] was tested, and the pEC50 was < 3.52.
For `Cc1c(Br)c([N+](=O)[O-])nn1CCCC(=O)N1CCN(c2ccccc2)CC1` [SMR000206162], the pEC50 was < 3.52.
In the case of `CC1CC(=O)Nc2ccc([N+](=O)[O-])cc2N1C` (configuration not stated) [SMR000207335], the pEC50 was < 3.52.
With `C=CCNC(=S)NN=Cc1cn(-c2ccccc2)nc1-c1ccc(OC)cc1` [SMR000212115] the pEC50 was 4.37.
`O=C1N=C(NCc2ccccc2)SC1=Cc1ccc(O)cc1` [SMR000217101] gave a pEC50 of 5.52.
`Nc1nc(NCC2CCCO2)nc(Nc2ccc(F)cc2)c1[N+](=O)[O-]` (configuration not stated) [SMR000219528] gave a pEC50 of 5.24.
`Cc1ccc(Nc2nc(NCC3CCCO3)nc(N)c2[N+](=O)[O-])cc1C` (configuration not stated) [SMR000219669] gave a pEC50 of 4.97.
`Nc1nc(NCCCN2CCOCC2)nc(Nc2ccccc2)c1[N+](=O)[O-]` [SMR000219678] showed a pEC50 of 5.65.
Work on `Nc1nc(Nc2ccccc2)nc(N2CCOCC2)c1[N+](=O)[O-]` [SMR000219795] yielded a pEC50 of 4.69.
With `Cc1ccc(Nc2nc(NCCCN3CCOCC3)nc(N)c2[N+](=O)[O-])cc1C` [SMR000219808] the pEC50 was < 3.52.
In the case of `Cc1cccc(Nc2nc(N)c([N+](=O)[O-])c(NCc3ccco3)n2)c1` [SMR000220105], the pEC50 was 5.08.
Work on `CC(C)CCNc1nc(N)c([N+](=O)[O-])c(NCC2CCCO2)n1` (configuration not stated) [SMR000220274] yielded a pEC50 of 5.84.
With `CCN1CCN(Cc2c(O)ccc3c2O/C(=C\C=C\c2ccccc2)C3=O)CC1` [SMR000221319] the pEC50 was < 3.52.
`Cc1ccc(C=NNC(=O)c2cncc(Br)c2)o1` [SMR000226283] was tested, and the pEC50 was < 3.52.
In the case of `O=C(Nc1ccc([N+](=O)[O-])cn1)C1CC1` [SMR000227137], the pEC50 was 4.64.
With `Cc1nn(C)c(C(=O)N2CCc3ccccc32)c1Br` [SMR000228334] the pEC50 was < 3.52.
For `CC(C)C(=O)NC(=S)Nc1ccc(S(=O)(=O)N2CCCC2)cc1` [SMR000231524], the pEC50 was < 3.52.
`COc1cccc(N=Nc2c(N)[nH][nH]c2=O)c1` [SMR000231776] was tested, and the pEC50 was 4.70.
With `CCOC(=O)CCCSc1nnc(CCCCCN2C(=O)c3cccc4cccc(c34)C2=O)o1` [SMR000235858] the pEC50 was < 3.52.
For `COc1ccc2cc(C(N)=O)c(=NNC(=O)c3ccco3)oc2c1` [SMR000236446], the pEC50 was < 3.52.
